Experimental data taken from PubChem BioAssay AID1845216 (Molecular Pharmacology Branch, DTP, NCI, 2023).

Test system: SW 982 tumor spheroid viability
Test: Anticancer human tumor SW 982 cell line growth inhibition;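 also: spheroids exposed to compound for 7 days before readout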
Settings: spheroids with HUVEC and MSC; for IC50: curve of first compound; for viability, T/C: stronger effect = lower value
Method in brief: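 Complex spheroids of malignant cells with endothelial cells and mesenchymal stem cells; agents alone or combined, from near clinical Cmax (or 10 microM if unknown) down in half-log steps, 0.25% DMSO final.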

[1] = second compound 1 µM, first compound 0.0316 µM
[2] = second compound 1 µM, first compound 0.1 µM
[3] = second compound 1 µM, first compound 0.316 µM
[4] = second compound 1 µM, first compound 1 µM
[5] = second compound 1 µM, first compound 3.16 µM
[6] = second compound 1 µM, first compound 10 µM
[7] = second compound 3.16 µM, first compound 0.0316 µM
[8] = second compound 3.16 µM, first compound 0.1 µM
[9] = second compound 3.16 µM, first compound 0.316 µM
[10] = second compound 3.16 µM, first compound 1 µM
[11] = second compound 3.16 µM, first compound 3.16 µM
[12] = second compound 3.16 µM, first compound 10 µM
[13] = second compound 10 µM, first compound 0.0316 µM
[14] = second compound 10 µM, first compound 0.1 µM
[15] = second compound 10 µM, first compound 0.316 µM
[16] = second compound 10 µM, first compound 1 µM
[17] = second compound 10 µM, first compound 3.16 µM
[18] = second compound 10 µM, first compound 10 µM
[19] = second compound 31.6 µM, first compound 0.0316 µM
[20] = second compound 31.6 µM, first compound 0.1 µM
[21] = second compound 31.6 µM, first compound 0.316 µM
[22] = second compound 31.6 µM, first compound 1 µM
[23] = second compound 31.6 µM, first compound 3.16 µM
[24] = second compound 31.6 µM, first compound 10 µM
[25] = second compound 100 µM, first compound 0.0316 µM
[26] = second compound 100 µM, first compound 0.1 µM
[27] = second compound 100 µM, first compound 0.316 µM
[28] = second compound 100 µM, first compound 1 µM
[29] = second compound 100 µM, first compound 3.16 µM
[30] = second compound 100 µM, first compound 10 µM

COc1cc(C)[nH]c(=O)c1CN1CCc2c(Cl)cc(C(OC)C3COC3)c(Cl)c2C1=O (stereo not given) + Cn1nnc2c(C(N)=O)ncn2c1=O
IC50 (second compound 1 µM): > 10 µM
IC50 (second compound 3.16 µM): > 10 µM
IC50 (second compound 10 µM): > 10 µM
IC50 (second compound 31.6 µM): > 10 µM
IC50 (second compound 100 µM): > 10 µM
viability, T/C [1]: 101%
viability, T/C [2]: 103%
viability, T/C [3]: 103%
viability, T/C [4]: 113%
viability, T/C [5]: 101%
viability, T/C [6]: 99.7%
viability, T/C [7]: 94.3%
viability, T/C [8]: 92.4%
viability, T/C [9]: 96%
viability, T/C [10]: 102%
viability, T/C [11]: 100%
viability, T/C [12]: 93.1%
viability, T/C [13]: 81.8%
viability, T/C [14]: 83.5%
viability, T/C [15]: 86.2%
viability, T/C [16]: 88.3%
viability, T/C [17]: 85.8%
viability, T/C [18]: 78.3%
viability, T/C [19]: 71.1%
viability, T/C [20]: 71.7%
viability, T/C [21]: 70.4%
viability, T/C [22]: 78.8%
viability, T/C [23]: 70%
viability, T/C [24]: 69.1%
viability, T/C [25]: 58.6%
viability, T/C [26]: 62.3%
viability, T/C [27]: 65%
viability, T/C [28]: 64.3%
viability, T/C [29]: 64.6%
viability, T/C [30]: 61.9%

[2H]c1nc(C)nc([2H])c1-c1cc(NC[C@@H](C)c2cccc3c(C(=O)NC)ccnc23)ncn1 + Cn1nnc2c(C(N)=O)ncn2c1=O
IC50 (second compound 1 µM): > 10 µM
IC50 (second compound 3.16 µM): > 10 µM
IC50 (second compound 10 µM): > 10 µM
IC50 (second compound 31.6 µM): > 10 µM
IC50 (second compound 100 µM): > 10 µM
viability, T/C [1]: 100%
viability, T/C [2]: 102%
viability, T/C [3]: 92.6%
viability, T/C [4]: 103%
viability, T/C [5]: 106%
viability, T/C [6]: 82.3%
viability, T/C [7]: 92.6%
viability, T/C [8]: 86.4%
viability, T/C [9]: 96%
viability, T/C [10]: 86.8%
viability, T/C [11]: 63.9%
viability, T/C [12]: 55.1%
viability, T/C [13]: 83.8%
viability, T/C [14]: 76%
viability, T/C [15]: 78.5%
viability, T/C [16]: 80.7%
viability, T/C [17]: 71.7%
viability, T/C [18]: 59.8%
viability, T/C [19]: 69.5%
viability, T/C [20]: 76.2%
viability, T/C [21]: 76.8%
viability, T/C [22]: 72.5%
viability, T/C [23]: 76.5%
viability, T/C [24]: 71.2%
viability, T/C [25]: 63.5%
viability, T/C [26]: 63.4%
viability, T/C [27]: 58%
viability, T/C [28]: 60.9%
viability, T/C [29]: 56.9%
viability, T/C [30]: 60.7%
